{
  "source": "patent US7009045B2",
  "about": "(priority 2000, dated 2006)",
  "format_in_all_cases": "cell-based",
  "key": {"[1]": {"test_system": "Candida famata regulatory mutants able to overproduce riboflavin", "test": "Sensitivity to K2Cr2O7, solid Burkholder medium with 0.3 M sucrose (Table 13)", "experimental": "(§1) The sensitivity of the regulatory mutants of the yeast C. famata which overproduce riboflavin in iron rich medium probably due to defects in genes regulating repression (repression mutants), to different ions of heavy metals was studied. For this, the analyzed strains were streaked on the YPD plates and then were replica-plated on Burkholder synthetic medium containing leucine (40 μg/ml). The C.famata mutants L20105-40-1-11, L20105-40-1-17, L20105-3-2-1, L20105-3-2-8 and L20105-3-2-12 (all contained leu2 marker) accumulated 80–100 μg riboflavin/ml. The mutants #75, 4-48, 2-5 produced much higher amounts of riboflavin (200–250 μg/ml) but were prototrophs for leucine synthesis. Strain #75 was characterized by retarded growth comparing with other mutants. The strains VKM Y-9 (wild type) and L20105 (leu2) were used as the control strains."}, "[2]": {"test_system": "Candida famata regulatory mutants able to overproduce riboflavin", "test": "Sensitivity to K2Cr2O7, solid Burkholder medium with 0.5% glycerol (Table 14)", "experimental": "as §1"}, "[3]": {"test_system": "Candida famata wild type and regulatory mutants able to overproduce riboflavin on iron-rich medium", "test": "Sensitivity after electroporation to K2Cr2O7, Burkholder medium with 1% ethanol (Table 17)", "conditions": "K2Cr2O7 15–50 μM", "excerpt": "The strategy for the cloning of the genes regulating derepression of riboflavin in C. famata was developed using regulatory mutants 2-5 and 4-48 which accumulate elevated amounts of riboflavin in the medium with high iron content. The method for positive selection of the transformants which, after transformation with C. famata gene library, would lose the ability to overproduce riboflavin in iron rich medium, was developed. For this, the difference in sensitivity to Cr^+6 ions (as K2Cr2O7) between C. famata wild strain VKM Y-9 and overproducers of riboflavin 2-5 and 4-48 after their electroporation with the C. famata gene library constructed on pCfARS1614, was studied.\nToxicity of Cr^+6 was studied on agar plates containing different carbon sources (sucrose, glycerol, ethanol). Before the electroporated cells were plated on ethanol and glycerol medium, the cells were washed 3 times with 10 fold volumes of 0.6 M KCl and the suspension volumes were adjusted with 0.6 M KCl to 100 μl. On each plate containing glycerol (0.5%) or ethanol (1%), 0.6 M KCl and different concentrations (10–200 uM) of K2Cr2O7, in a 30–60 μl suspension were spread. Where sucrose was used as a carbon source, this sugar was used at a 0.3M concentration, using it as both as a carbon source and osmotic stabilizer."}, "[4]": {"test_system": "Pichia guilliermondii wild type and regulatory mutants (rib81)", "test": "Sensitivity after electroporation to K2Cr2O7, medium with 0.5% glycerol (Table 21)", "design": "key: +++: strong growth; ++: weak growth; —: absence of growth", "excerpt": "The possibility for positive selection of P. guilliermondii rib81 transformants unable to overproduce riboflavin in minimal medium was studied. For this, the toxicity of K2Cr2O7 (Cr^+6) was compared for the P. guilliermondii wild-type strain ATCC 9058 and regulatory mutants P. guilliermondii rib81 9-20 and 20-2. The cells were pregrown in liquid YPD to OD 1.5–2.0 (540 nm) and electroporated according to the protocol described (Example 34). Electroporated cells were washed three times with 10×volume of 0.6 M KCl and then the volume was adjusted to 1 ml. Then the cells were plated at 0.2 ml suspension per plate which contained 0.5% glycerol, 0.6 M KCl and K2Cr2O7 (50–1000 μM).\nThe visual selection of the non-overproducing riboflavin transformants is rather arbitrary and uncertain. Therefore it was decided to develop the method for positive selection of the transformants using tentative differences in sensitivity to K2Cr2O7 of wild-type P. guilliermondii and the regulatory mutants rib81 9-20 and 20-2. After 6 days of cultivation in the medium with 0.5% glycerol, it was shown that K2Cr2O7 at 150–180 μM inhibited growth of regulatory mutant 9-20 more strongly than that of the wild strain (Table 21)."}, "[5]": {"test_system": "Candida famata regulatory mutants able to overproduce riboflavin", "test": "Sensitivity to K2Cr2O7, solid Burkholder medium with 0.5% glycerol (Table 14)", "design": "key: +++: strong growth; ++: weak growth; +: very weak growth; —: absence of growth", "experimental": "as §1"}, "[6]": {"test_system": "Pichia guilliermondii wild type and regulatory mutants (rib81)", "test": "Sensitivity after electroporation to K2Cr2O7, Burkholder medium with 0.3 M sucrose (Table 22)", "design": "key: +++: strong growth; ++: weak growth; +: very weak growth; —: absence of growth", "conditions": "K2Cr2O7 400 μM"}, "[7]": {"test_system": "Candida famata regulatory mutants able to overproduce riboflavin", "test": "Sensitivity to copper ions, solid Burkholder medium (Table 12)", "experimental": "as §1\n(§2) Mutants overproducing lower amounts of riboflavin appeared to be more sensitive to CuSO4 (0.15 mM) than that of the strains producing higher amounts of riboflavin (inhibitory concentration 0.5 mM) (Table 12)."}, "[8]": {"test_system": "Candida famata regulatory mutants able to overproduce riboflavin", "test": "Sensitivity to copper ions, solid Burkholder medium (Table 12)", "design": "key: +++: strong growth; ++: weak growth; —: absence of growth", "conditions": "L20105-3-2-4"}, "[9]": {"test_system": "Candida famata regulatory mutants able to overproduce riboflavin", "test": "Sensitivity to copper ions, solid Burkholder medium (Table 12)", "design": "key: +++: strong growth; ++: weak growth; +: very weak growth; —: absence of growth", "experimental": "as §1, §2"}},
  "data": [
    {"smiles": "[K+].[K+].[O]=[Cr](=[O])([O-])[O][Cr](=[O])(=[O])[O-]", "note": "[K2Cr2O7]", "values": [
      {"measurement": "concentration inhibiting growth of strain #75", "setting": "[1]; medium with 0.3 M sucrose", "result": 100, "unit": "µM"},
      {"measurement": "concentration inhibiting growth of strains with higher riboflavin production", "setting": "[1]; medium with 0.3 M sucrose", "result": 175, "unit": "µM"},
      {"measurement": "concentration totally inhibiting growth of mutants with lower levels of riboflavin overproduction", "setting": "[1]; medium with 0.3 M sucrose", "result": 125, "unit": "µM"},
      {"measurement": "effect of subinhibitory concentrations on flavinogenesis of all tested strains", "setting": "[1]; riboflavin overproducers and wild-type strains", "result": "stimulated flavinogenesis"},
      {"measurement": "concentration inhibiting growth of weaker overproducers", "setting": "[2]", "result": 50, "unit": "µM"},
      {"measurement": "growth of the wild-type strain", "setting": "[3]", "result": "almost uninhibited"},
      {"measurement": "growth", "setting": "[4]; #9-20 (leu2), K2Cr2O7 75 μM", "result": "+++"},
      {"measurement": "growth", "setting": "[4]; #9-20 (leu2), K2Cr2O7 100 μM", "result": "++"},
      {"measurement": "growth", "setting": "[4]; #9-20 (leu2), K2Cr2O7 150 μM", "result": "—"},
      {"measurement": "growth", "setting": "[4]; #9-20 (leu2), K2Cr2O7 185 μM", "result": "—"},
      {"measurement": "growth", "setting": "[4]; #9-20 (leu2), K2Cr2O7 240 μM", "result": "—"},
      {"measurement": "growth", "setting": "[4]; ATCC9058, K2Cr2O7 75 μM", "result": "+++"},
      {"measurement": "growth", "setting": "[4]; ATCC9058, K2Cr2O7 100 μM", "result": "+++"},
      {"measurement": "growth", "setting": "[4]; ATCC9058, K2Cr2O7 125 μM", "result": "+++"},
      {"measurement": "growth", "setting": "[4]; ATCC9058, K2Cr2O7 150 μM", "result": "+++"},
      {"measurement": "growth", "setting": "[4]; ATCC9058, K2Cr2O7 185 μM", "result": "++"},
      {"measurement": "growth", "setting": "[4]; ATCC9058, K2Cr2O7 240 μM", "result": "—"},
      {"measurement": "growth", "setting": "[5]; #2-5, K2Cr2O7 65 μM", "result": "+"},
      {"measurement": "growth", "setting": "[5]; #2-5, K2Cr2O7 75 μM", "result": "+"},
      {"measurement": "growth", "setting": "[5]; L20105-3-2-4, K2Cr2O7 30 μM", "result": "+"},
      {"measurement": "growth", "setting": "[5]; L20105-3-2-4, K2Cr2O7 40 μM", "result": "+"},
      {"measurement": "growth", "setting": "[5]; L20105-3-2-8, K2Cr2O7 30 μM", "result": "+"},
      {"measurement": "growth", "setting": "[5]; L20105-3-2-8, K2Cr2O7 40 μM", "result": "+"},
      {"measurement": "growth", "setting": "[5]; L20105-3-2-12, K2Cr2O7 30 μM", "result": "+"},
      {"measurement": "growth", "setting": "[5]; L20105-3-2-12, K2Cr2O7 40 μM", "result": "+"},
      {"measurement": "growth", "setting": "[6]; #9-20 (leu2)", "result": "+"},
      {"measurement": "growth", "setting": "[6]; ATCC9058", "result": "+"}
    ]},
    {"smiles": "O=S(=O)([O-])[O-].[Cu+2]", "note": "[CuSO4]", "values": [
      {"measurement": "inhibitory concentration, mutants overproducing lower amounts of riboflavin", "setting": "[7]", "result": 0.15, "unit": "mM"},
      {"measurement": "inhibitory concentration, strains producing higher amounts of riboflavin", "setting": "[7]", "result": 0.5, "unit": "mM"},
      {"measurement": "growth", "setting": "[8]; Cu^+2 0.3 mM", "result": "—"},
      {"measurement": "growth", "setting": "[8]; Cu^+2 8 mM", "result": "—"},
      {"measurement": "growth", "setting": "[9]; #2-5, Cu^+2 0.45 mM", "result": "+"},
      {"measurement": "growth", "setting": "[9]; #4-48, Cu^+2 0.45 mM", "result": "+"},
      {"measurement": "growth", "setting": "[9]; #75, Cu^+2 0.45 mM", "result": "+"},
      {"measurement": "growth", "setting": "[9]; L20105 (leu2), Cu^+2 0.6 mM", "result": "+"},
      {"measurement": "growth", "setting": "[9]; L20105-3-2-4, Cu^+2 0.1 mM", "result": "+"},
      {"measurement": "growth", "setting": "[9]; L20105-3-2-8, Cu^+2 0.1 mM", "result": "+"},
      {"measurement": "growth", "setting": "[9]; L20105-3-2-12, Cu^+2 0.1 mM", "result": "+"}
    ]}
  ]
}
